Reference: patent publication US8741934B2, “Inhibitors of ion channels” (Pfizer Limited, priority 2007, dated 2014)

Target: T1, hSCN3A sodium channels (Homo sapiens, UniProt Q9NY46)
T1 construct: expressed in transfected cells
Test: hSCN3A electrophysiology, Ionworks Quattro automated platform (Table C)
Format: cell-based
Conditions: for inhibition at 3 µM: 3 μM compound, read-out: SCN3A % INHIB HTS IWQ 3 μM; for inhibition at 10 µM: 10 μM compound, read-out: SCN3A % INHIB HTS IWQ 10 μM
Procedure, shortened: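 HEK cells stably expressing hSCN3A were recorded in perforated-patch mode with 100 μg/ml amphotericin on Ionworks Quattro. The protocol used an inactivating step, a brief hyperpolarized partial recovery, then a depolarized test step. Inhibition was taken from current amplitude before versus after compound addition.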

T1 sequence (Q9NY46 whole entry): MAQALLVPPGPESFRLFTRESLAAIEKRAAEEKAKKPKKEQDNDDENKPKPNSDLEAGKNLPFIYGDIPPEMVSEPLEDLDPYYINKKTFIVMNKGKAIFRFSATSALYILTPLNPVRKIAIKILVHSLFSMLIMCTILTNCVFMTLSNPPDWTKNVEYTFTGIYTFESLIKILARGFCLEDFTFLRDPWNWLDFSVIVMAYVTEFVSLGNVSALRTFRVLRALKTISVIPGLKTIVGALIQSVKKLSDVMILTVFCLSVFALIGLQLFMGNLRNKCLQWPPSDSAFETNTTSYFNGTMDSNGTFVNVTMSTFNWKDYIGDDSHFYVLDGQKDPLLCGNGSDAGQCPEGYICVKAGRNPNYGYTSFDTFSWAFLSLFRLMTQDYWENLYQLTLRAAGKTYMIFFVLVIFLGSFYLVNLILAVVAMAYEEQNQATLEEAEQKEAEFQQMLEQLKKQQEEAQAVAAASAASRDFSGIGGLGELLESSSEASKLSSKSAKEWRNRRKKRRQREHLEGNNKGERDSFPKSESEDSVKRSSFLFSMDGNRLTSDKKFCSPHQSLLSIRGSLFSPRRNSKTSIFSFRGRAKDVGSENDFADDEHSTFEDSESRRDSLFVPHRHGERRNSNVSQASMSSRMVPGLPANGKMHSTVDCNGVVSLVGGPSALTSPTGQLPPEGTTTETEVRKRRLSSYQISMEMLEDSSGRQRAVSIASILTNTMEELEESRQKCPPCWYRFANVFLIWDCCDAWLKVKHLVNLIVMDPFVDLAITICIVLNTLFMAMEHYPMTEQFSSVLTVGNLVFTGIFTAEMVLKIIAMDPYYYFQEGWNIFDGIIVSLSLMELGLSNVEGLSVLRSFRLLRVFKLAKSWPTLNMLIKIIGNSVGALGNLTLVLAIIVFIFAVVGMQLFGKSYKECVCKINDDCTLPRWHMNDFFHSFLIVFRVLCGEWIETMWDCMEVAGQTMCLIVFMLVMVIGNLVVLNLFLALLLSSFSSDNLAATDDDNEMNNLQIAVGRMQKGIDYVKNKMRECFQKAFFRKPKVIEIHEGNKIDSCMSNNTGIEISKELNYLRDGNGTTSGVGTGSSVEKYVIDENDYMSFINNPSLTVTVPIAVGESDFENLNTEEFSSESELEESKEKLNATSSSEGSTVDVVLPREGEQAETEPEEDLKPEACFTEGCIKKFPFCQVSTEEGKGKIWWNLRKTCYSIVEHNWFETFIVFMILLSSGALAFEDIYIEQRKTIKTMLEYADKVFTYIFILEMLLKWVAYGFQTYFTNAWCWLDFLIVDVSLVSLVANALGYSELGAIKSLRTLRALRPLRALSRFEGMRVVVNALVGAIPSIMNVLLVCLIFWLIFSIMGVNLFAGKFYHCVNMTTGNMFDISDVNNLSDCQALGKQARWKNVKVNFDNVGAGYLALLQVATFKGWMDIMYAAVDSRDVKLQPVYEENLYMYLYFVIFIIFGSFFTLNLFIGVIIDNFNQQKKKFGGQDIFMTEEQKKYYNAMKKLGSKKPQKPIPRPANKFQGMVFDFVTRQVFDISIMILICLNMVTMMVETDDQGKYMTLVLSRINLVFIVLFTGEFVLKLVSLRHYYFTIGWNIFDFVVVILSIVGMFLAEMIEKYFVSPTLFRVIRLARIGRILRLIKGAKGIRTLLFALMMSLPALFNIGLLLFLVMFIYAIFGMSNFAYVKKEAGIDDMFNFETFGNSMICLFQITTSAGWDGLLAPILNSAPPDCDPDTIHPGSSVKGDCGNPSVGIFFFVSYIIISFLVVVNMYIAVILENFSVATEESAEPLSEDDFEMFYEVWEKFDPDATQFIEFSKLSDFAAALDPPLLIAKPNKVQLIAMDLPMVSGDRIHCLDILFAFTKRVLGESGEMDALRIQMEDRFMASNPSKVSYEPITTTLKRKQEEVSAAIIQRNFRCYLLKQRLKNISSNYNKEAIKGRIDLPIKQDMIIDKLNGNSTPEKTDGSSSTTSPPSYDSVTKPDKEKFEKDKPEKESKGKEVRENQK

Row | SMILES | inhibition at 3 µM [%] | inhibition at 10 µM [%] | SCN3A INHIB INACT DRC EP IWQ EMAX (Emax of dose-response curve, inactivated state)
1 | CC(C)(NC(=O)c1ccc(S(=O)(=O)Nc2nccs2)cc1)c1ccc(F)c(F)c1 [Example 146, N-[1-(3,4-difluorophenyl)-1-methylethyl]-4-[(1,3-thiazol-2-ylamino)sulfonyl]benzamide] | 24.3 | 27.9 | –
2 | O=C(c1ccc(S(=O)(=O)Nc2nccs2)cc1)N1CCCCC1COc1ccccc1 (centres unmarked) [Example 224, 4-{[2-(Phenoxymethyl)piperidin-1-yl]carbonyl}-N-1,3-thiazol-2-yl-benzenesulfonamide] | 3.47 | 9.34 | –
3 | COc1cccc(CC2CCCN2C(=O)c2ccc(S(=O)(=O)Nc3nccs3)cc2)c1 (centres unmarked) [Example 240, 4-{[2-(3-Methoxybenzyl)pyrrolidin-1-yl]carbonyl}-N-1,3-thiazol-2-yl-benzenesulfonamide] | 14.4 | 20.2 | –
4 | O=C(c1ccc(S(=O)(=O)Nc2nccs2)cc1)N1CCCC(COc2ccccc2)C1 (centres unmarked) [Example 267, 4-{[3-(Phenoxymethyl)piperidin-1-yl]carbonyl}-N-1,3-thiazol-2-yl-benzenesulfonamide] | 30.1 | 23.1 | –
5 | Cc1ccnc(NC(=O)c2ccc(S(=O)(=O)Nc3nccs3)cc2)c1 [Example 181, N-(4-methylpyridin-2-yl)-4-[(1,3-thiazol-2-ylamino)sulfonyl]benzamide] | -12.2 | 11.2 | –
6 | COc1cccc(C2CCCCN2C(=O)c2ccc(S(=O)(=O)Nc3nccs3)cc2)c1 (centres unmarked) [Example 201, 4-{[2-(3-Methoxyphenyl)piperidin-1-yl]carbonyl}-N-1,3-thiazol-2-yl-benzenesulfonamide] | 13.7 | -0.98 | –
7 | O=C(c1ccc(S(=O)(=O)Nc2nccs2)cc1)N1CCOC(COc2cccc(Cl)c2)C1 (centres unmarked) [Example 234, 4-({2-[(3-Chlorophenoxy)methyl]morpholin-4-yl}carbonyl)-N-1,3-thiazol-2-yl-benzenesulfonamide] | 32 | 45.9 | 43.1
8 | CN(CC1Cc2ccccc2O1)C(=O)c1ccc(S(=O)(=O)Nc2nccs2)cc1 (centres unmarked) [Example 274, N-(2,3-dihydro-1-benzofuran-2-ylmethyl)-N-methyl-4-[(1,3-thiazol-2-ylamino)sulfonyl]benzamide] | 14.6 | 19.6 | –
9 | O=C(NCCOc1ccccc1F)c1ccc(S(=O)(=O)Nc2nccs2)cc1 [Example 167, N-[2-(2-fluorophenoxy)ethyl]-4-[(1,3-thiazol-2-ylamino)sulfonyl]benzamide] | 30.8 | 43 | –
10 | C[C@@H](c1ccccc1)N(C)C(=O)c1ccc(S(=O)(=O)Nc2nccs2)cc1 [Example 256, N-methyl-N-[(1S)-1-phenylethyl]-4-[(1,3-thiazol-2-yl-amino)sulfonyl]benzamide] | 1.49 | 6.44 | –
11 | COc1cccc(C2CCCN2C(=O)c2ccc(S(=O)(=O)Nc3nccs3)cc2)c1 (centres unmarked) [Example 273, 4-{[2-(3-Methoxyphenyl)pyrrolidin-1-yl]carbonyl}-N-1,3-thiazol-2-yl-benzenesulfonamide] | 4.82 | 2.72 | –
12 | O=C(NCc1cccc(OC(F)(F)F)c1)c1ccc(S(=O)(=O)Nc2nccs2)c(Cl)c1 [Example 285, 3-Chloro-4-[(1,3-thiazol-2-ylamino)sulfonyl]-N-[3-(trifluoromethoxy)benzyl]benzamide] | 15.1 | 39.1 | –
13 | Cc1ccc([C@H](C)NC(=O)c2ccc(S(=O)(=O)Nc3nccs3)cc2)cc1 [Example 79, N-[(1S)-1-(4-methylphenyl)ethyl]-4-[(1,3-thiazol-2-ylamino)sulfonyl]benzamide] | 17.7 | -1.9 | –
14 | O=C(c1ccc(S(=O)(=O)Nc2nccs2)cc1)N(Cc1ccc(F)cc1)C1CC1 [Example 230, N-cyclopropyl-N-(4-fluorobenzyl)-4-[(1,3-thiazol-2-yl-amino)sulfonyl]benzamide] | 16.7 | -0.51 | –
